From US9549921B2, “Heterocyclic compounds and methods of use thereof for the treatment of hepatitis C” (priority 2014, dated 2017)
Where two headings read alike, the source gives them in different places.

Legend:
[1] = test system: HCV replicon genotype 1b; assay: HCV replicon assay, genotype 1b (cell ELISA for NS3/4A); assay type: cell-based, hepatitis C virus
How it was run: (§1)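 Readout is NS3/4A protein level from an antibody-based cell ELISA, serving as an indirect measure of replicon RNA; IC50 fitted with a four-parameter function relative to DMSO control. Replicon cells, kept under G418 beforehand, were plated with serial compound dilutions minus G418 for 96 hours.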

[2] = test system: HCV replicon genotype 1a; assay: HCV replicon assay, genotype 1a (cell ELISA for NS3/4A); assay type: cell-based, hepatitis C virus
How it was run: as §1

[3] = Hepatitis C virus, 96 h, read-out: 1b IC50 (nM), HCV genotype 1b replicon cells, 96 hours incubation, NS3/4A ELISA readout, % of DMSO control
[4] = Hepatitis C virus, 96 h, read-out: 1a IC50 (nM), HCV genotype 1a replicon cells, 96 hours incubation, NS3/4A ELISA readout, % of DMSO control
[5] = read-out: 1a IC50, HCV genotype 1a replicon cells, 96 hours incubation, NS3/4A ELISA readout, % of DMSO control
[6] = read-out: 1b IC50, HCV genotype 1b replicon cells, 96 hours incubation, NS3/4A ELISA readout, % of DMSO control

Row | Structure (SMILES) | IC50 [1, 3] | IC50 [2, 4] | further results
1 | CNC(=O)c1c(-c2ccc(F)cc2)oc2cc(N(C)S(C)(=O)=O)c(C3CCCN(C(=O)[C@H](NC(=O)OC(C)(C)C)c4ccccc4F)C3)cc12 (single isomer, unassigned) [Example 27] | 35.2 nM | 44.4 nM | –
2 | CNC(=O)c1c(-c2ccc(F)cc2)oc2cc(N(C)S(C)(=O)=O)c([C@H]3CCCN(C(=O)c4cc5cc(F)ccc5[nH]4)C3)cc12 [Example 90, (R)-5-(1-(5-fluoro-1H-indole-2-carbonyl)piperidin-3-yl)-2-(4-fluorophenyl)-N-methyl-6-(N-methylmethylsulfonamido)benzofuran-3-carboxamide] | 20.7 nM | 41.6 nM | –
3 | CNC(=O)c1c(-c2ccc(F)cc2)oc2cc(N(C)S(C)(=O)=O)c(C3C[C@@H](c4nc5c(F)cccc5o4)N(C)C3)cc12 (stereo partly drawn) [Example 12, 5-((5S)-5-(4-fluorobenzo[d]oxazol-2-yl)-1-methylpyrrolidin-3-yl)-2-(4-fluorophenyl)-N-methyl-6-(N-methylmethylsulfonamido)benzofuran-3-carboxamide] | 37.8 nM | 92.8 nM | –
4 | CNC(=O)c1c(-c2ccc(F)cc2)oc2cc(N(C)S(C)(=O)=O)c([C@@H]3CCCN(C(=O)c4cc5ccccc5[nH]4)C3)cc12 (single isomer, unassigned) [Example 21, 5-(1-(1H-indole-2-carbonyl)piperidin-3-yl)-2-(4-fluorophenyl)-N-methyl-6-(N-methylmethylsulfonamido)benzofuran-3-carboxamide] | 9.96 nM | – | IC50 [2, 5]: 16.2 nM
5 | CNC(=O)c1c(-c2ccc(F)cc2)oc2cc(N(C)S(C)(=O)=O)c([C@@H]3CCCN(S(=O)(=O)CCc4ccccc4)C3)cc12 [Example 124, 2-(4-fluorophenyl)-N-methyl-6-[methyl(methylsulfonyl)amino]-5-{(3S)-1-[(2-phenylethyl)sulfonyl]piperidin-3-yl}-1-benzofuran-3-carboxamide] | 72.9 nM | 182 nM | –
6 | CNC(=O)c1c(-c2ccc(F)cc2)oc2cc(N(C)S(C)(=O)=O)c([C@@H]3CCCN(c4nc5c(F)cccc5o4)C3)cc12 (single isomer, unassigned) [Example 50, 5-(1-(4-fluorobenzo[d]oxazol-2-yl)piperidin-3-yl)-2-(4-fluorophenyl)-N-methyl-6-(N-methylmethylsulfonamido)benzofuran-3-carboxamide] | – | – | IC50 [1, 6]: 20.1 nM; IC50 [2, 5]: 81.7 nM
7 | CNC(=O)c1c(-c2ccc(F)cc2)oc2cc(N(C)S(C)(=O)=O)c([C@H]3CN(C(=O)c4cc5cccc(F)c5[nH]4)CCO3)cc12 (single isomer, unassigned) [Example 6, 5-(4-(7-fluoro-1H-indole-2-carbonyl)morpholin-2-yl)-2-(4-fluorophenyl)-N-methyl-6-(N-methylmethylsulfonamido)benzofuran-3-carboxamide] | 17.4 nM | 11.1 nM | –
8 | CNC(=O)c1c(-c2ccc(F)cc2)oc2cc(N(C)S(C)(=O)=O)c([C@@H]3CCCN(C(=O)c4cc5c(OC)cccc5[nH]4)C3)cc12 [Example 64, 2-(4-fluorophenyl)-5-{1-[(4-methoxy-1H-indol-2-yl)carbonyl]piperidin-3-yl}-N-methyl-6-[methyl(methylsulfonyl)amino]-1-benzofuran-3-carboxamide] | 40.7 nM | 135 nM | –
9 | CNC(=O)c1c(-c2ccc(F)cc2)oc2cc(N(C)S(C)(=O)=O)c(C3CCCN(c4nc5cc(F)ccc5o4)C3)cc12 (centres unmarked) [Example 51] | – | – | IC50 ([1]; HCV genotype 1b replicon cells, 96 hours incubation, NS3/4A ELISA readout, % of DMSO control, read-out: 1b IC50): 7.12 nM; IC50 ([2]; HCV genotype 1a replicon cells, 96 hours incubation, NS3/4A ELISA readout, % of DMSO control, read-out: 1a IC50): 4.99 nM
10 | CNC(=O)c1c(-c2ccc(F)cc2)oc2cc(N(C)S(C)(=O)=O)c([C@@H]3CCCN(S(=O)(=O)c4cnc5n4CCCCC5)C3)cc12 [Example 125, 2-(4-fluorophenyl)-N-methyl-6-[methyl(methylsulfonyl)amino]-5-[(3S)-1-(6,7,8,9-tetrahydro-5H-imidazo[1,2-a]azepin-3-ylsulfonyl)piperidin-3-yl]-1-benzofuran-3-carboxamide] | 67.6 nM | 172 nM | –
11 | CNC(=O)c1c(-c2ccc(F)cc2)oc2cc(N(C)S(C)(=O)=O)c([C@H]3CN(c4nc5ccccc5o4)CCO3)cc12 (single isomer, unassigned) [Example 10, 5-(4-(benzo[d]oxazol-2-yl)morpholin-2-yl)-2-(4-fluorophenyl)-N-methyl-6-(N-methylmethylsulfonamido)benzofuran-3-carboxamide] | 26.6 nM | 16 nM | –
12 | CNC(=O)c1c(-c2ccc(F)cc2)oc2cc(N(C)S(C)(=O)=O)c([C@@H]3CCCN(C(=O)C4CC4c4ccc(F)cc4)C3)cc12 (stereo in doubt) [Example 61, 2-(4-fluorophenyl)-5-(1-{[2-(4-fluorophenyl)cyclopropyl]carbonyl}piperidin-3-yl)-N-methyl-6-[methyl(methylsulfonyl)amino]-1-benzofuran-3-carboxamide] | 99.5 nM | 251 nM | –
13 | CNC(=O)c1c(-c2ccc(F)cc2)oc2cc(N(C)S(C)(=O)=O)c([C@H]3CCCN(S(=O)(=O)c4ccc(F)cc4)C3)cc12 [Example 131, 2-(4-fluorophenyl)-5-{(3R)-1-[(4-fluorophenyl)sulfonyl]piperidin-3-yl}-N-methyl-6-[methyl(methylsulfonyl)amino]-1-benzofuran-3-carboxamide] | 88.9 nM | 176 nM | –
14 | CNC(=O)c1c(-c2ccc(F)cc2)oc2cc(N(C)S(C)(=O)=O)c([C@@H]3CCCN(S(=O)(=O)Cc4ccccc4)C3)cc12 [Example 121, 5-[(3S)-1-(benzylsulfonyl)piperidin-3-yl]-2-(4-fluorophenyl)-N-methyl-6-[methyl(methylsulfonyl)amino]-1-benzofuran-3-carboxamide] | 23.8 nM | 47.5 nM | –
15 | CNC(=O)c1c(-c2ccc(F)cc2)oc2cc(N(C)S(C)(=O)=O)c([C@H]3CCCN(C(=O)c4nc5ccc(F)cc5[nH]4)C3)cc12 [Example 92, 5-{(3R)-1-[(6-fluoro-1H-benzimidazol-2-yl)carbonyl]piperidin-3-yl}-2-(4-fluorophenyl)-N-methyl-6-[methyl(methylsulfonyl)amino]-1-benzofuran-3-carboxamide] | 97 nM | 274 nM | –
16 | CNC(=O)c1c(-c2ccc(F)cc2)oc2cc(N(C)S(C)(=O)=O)c([C@H]3CCCN(S(=O)(=O)Cc4cccc(F)c4)C3)cc12 [Example 82, 5-{(3R)-1-[(3-fluorobenzyl)sulfonyl]piperidin-3-yl}-2-(4-fluorophenyl)-N-methyl-6-[methyl(methylsulfonyl)amino]-1-benzofuran-3-carboxamide] | 3.26 nM | 2.2 nM | –
17 | CNC(=O)c1c(-c2ccc(F)cc2)oc2cc(N(C)S(C)(=O)=O)c([C@H]3CCCN(S(=O)(=O)c4cccc(F)c4)C3)cc12 [Example 130, 2-(4-fluorophenyl)-5-{(3R)-1-[(3-fluorophenyl)sulfonyl]piperidin-3-yl}-N-methyl-6-[methyl(methylsulfonyl)amino]-1-benzofuran-3-carboxamide] | 95.5 nM | 174 nM | –
18 | CNC(=O)c1c(-c2ccc(F)cc2)oc2cc(N(C)S(C)(=O)=O)c([C@@H]3CCCN(C(=O)c4cc5cccc(F)c5[nH]4)C3)cc12 [Example 32, (S)-5-(1-(7-fluoro-1H-indole-2-carbonyl)piperidin-3-yl)-2-(4-fluorophenyl)-N-methyl-6-(N-methylmethylsulfonamido)benzofuran-3-carboxamide] | 19.2 nM | 53.1 nM | –
19 | CNC(=O)c1c(-c2ccc(F)cc2)oc2cc(N(C)S(C)(=O)=O)c([C@@H]3CCCN(c4nc5ccccc5[nH]4)C3)cc12 (single isomer, unassigned) [Example 45, 5-(1-(1H-benzo[d]imidazol-2-yl)piperidin-3-yl)-2-(4-fluorophenyl)-N-methyl-6-(N-methylmethylsulfonamido)benzofuran-3-carboxamide] | – | – | IC50 [1, 6]: 70.9 nM; IC50 [2, 5]: 225 nM
20 | CNC(=O)c1c(-c2ccc(F)cc2)oc2cc(N(C)S(C)(=O)=O)c([C@@H]3CCCN(C(=O)c4nc5ccccc5n4C)C3)cc12 (single isomer, unassigned) [Example 23, 2-(4-fluorophenyl)-N-methyl-5-(1-(1-methyl-1H-benzo[d]imidazole-2-carbonyl)piperidin-3-yl)-6-(N-methylmethylsulfonamido)benzofuran-3-carboxamide] | 57.7 nM | 45.5 nM | –
21 | CNC(=O)c1c(-c2ccc(F)cc2)oc2cc(N(C)S(C)(=O)=O)c(C3CCN(C)C(c4cc5c(F)cccc5[nH]4)C3)cc12 (centres unmarked) [Example 16, 5-(2-(4-fluoro-1H-indol-2-yl)-1-methylpiperidin-4-yl)-2-(4-fluorophenyl)-N-methyl-6-(N-methylmethylsulfonamido)benzofuran-3-carboxamide] | 106 nM | 333 nM | –
22 | CNC(=O)c1c(-c2ccc(F)cc2)oc2cc(N(C)S(C)(=O)=O)c([C@H]3CCCN(S(=O)(=O)CCc4ccccc4)C3)cc12 [Example 141, 2-(4-fluorophenyl)-N-methyl-6-[methyl(methylsulfonyl)amino]-5-{(3R)-1-[(2-phenylethyl)sulfonyl]piperidin-3-yl}-1-benzofuran-3-carboxamide] | 14.2 nM | 10.6 nM | –
